Reference: paper PMC12030706, “Novel ^177Lu-Labeled [Thz^14]Bombesin(6–14) Derivatives with Low Pancreas Accumulation for Targeting Gastrin-Releasing Peptide Receptor-Expressing Cancer” (Pharmaceuticals, 2025)

Tests used:
[1] = system: PC-3 tumor-bearing NRG mouse; experiment: Longitudinal SPECT/CT imaging in PC-3 tumor-bearing mice; assay type: in vivo, mice (NRG); conditions: SPECT/CT images
Description: The PC-3 tumor-bearing mice were sedated (2.5% isoflurane in O2) and injected with ^177Lu-labeled ligands (15–32 MBq) through a lateral caudal tail vein. […] At each time point, a 5 min CT scan was obtained using 615 μA and 60 kV parameters for localization and attenuation, followed by 2 × 30 min static SPECT scans acquired in list mode with an energy window centered around 208 keV. The MILabs U-SPECT II reconstruction software (version 8.00) was used to reconstruct data, and the images were decay corrected to the time of injection with PMOD v 3.402 (PMOD Technologies GmbH, Fallanden, Switzerland).

[2] = LogD7.4 measurement, shake flask method; assay type: physicochemical; conditions: n-octanol/DPBS pH 7.4, n = 3
Description: The logD7.4 values of all the ^177Lu-labeled GRPR-targeted ligands were measured using the shake flask method as previously reported. An aliquot (~2 MBq) of the radiolabeled product was added to a mixture of n-octanol (3 mL) and DPBS (3 mL, pH 7.4), followed by 1 min vortexing and 15 min centrifugation at 5000 rpm. Samples of the n-octanol (1 mL) and buffer (1 mL) layers were collected, and the activity was counted using a gamma counter. The logD7.4 values were calculated using the following equation: logD7.4=log10[countsn−octanolphase/countsbutterphase]

[3] = Ex vivo biodistribution in PC-3 tumor-bearing mice; conditions: mouse; for tissue to tissue ratio at 1 h / tissue to tissue ratio at 4 h / tissue to tissue ratio at 24 h / tissue to tissue ratio at 72 h / tissue to tissue ratio at 120 h: male, NOD.Cg-Rag1^tm1Mom Il2rg^tm1Wjl/SzJ (NRG), total radioactivity; for tissue to tissue ratio at 4 h / tissue uptake at 4 h: 4 h post-injection; for tissue to tissue ratio at 24 h / tissue uptake at 24 h: 24 h post-injection; for tissue to tissue ratio at 72 h / tissue uptake at 72 h: 72 h post-injection; for tissue to tissue ratio at 120 h / tissue uptake at 120 h: 120 h post-injection
Description: SPECT/CT imaging experiments were performed using an MILabs (Houten, The Netherlands) U-SPECT-II/CT scanner with a custom-made ultra-high-sensitivity big mouse collimator (2 mm pinhole size) following previously reported procedures. […] Male NOD.Cg-Rag1^tm1Mom Il2rg^tm1Wjl/SzJ (NRG) mice were used in these experiments because of their immunodeficient characteristics and excellent radiation tolerance. Mice were anaesthetized and subcutaneously implanted with 5 × 10^6 PC-3 prostate cancer cells (100 µL; 1:1 PBS/Matrigel) behind the left shoulder. SPECT/CT imaging and biodistribution studies were performed once the tumors reached a diameter of 5–8 mm, typically after approximately 4 weeks of growth.
For ex vivo biodistribution studies, the mice were injected with ~2–6 MBq of the radioligand. […] Blocking study was conducted at 1 h post-injection via co-injection of the radioligand with 100 μg of [D-Phe^6,Leu-NHEt^13,des-Met^14]Bombesin(6–14). Organs/tissues of interested were collected, weighed, and measured using an automatic gamma counter.

[4] = tumor/blood, Tumor/blood uptake ratio
[5] = tumor/kidney, Tumor/kidney uptake ratio
[6] = tumor/muscle, Tumor/muscle uptake ratio
[7] = tumor/pancreas, Tumor/pancreas uptake ratio
[8] = PC-3 tumor, Uptake in PC-3 tumor
[9] = adrenal glands, Uptake in adrenal glands
[10] = large intestine, Uptake in large intestine

CC(C)C[C@H](NC(=O)[C@H](Cc1cnc[nH]1)N(C)C(=O)CNC(=O)[C@@H](NC(=O)[C@H](C)NC(=O)[C@H](Cc1c[nH]c2ccccc12)NC(=O)[C@H](CCC(N)=O)NC(=O)[C@@H](Cc1ccccc1)NC(=O)CN1CCC(NC(=O)CN2CCN(CC(=O)O)CCN(CC(=O)O)CCN(CC(=O)O)CC2)CC1)C(C)(C)C)C(=O)N1CSC[C@H]1C(N)=O [[^177Lu]Lu-LW01110, metal not drawn]
excretion pathway [1]: excreted mainly via the renal pathway
logD [2]: -2.76 ± 0.1
tissue to tissue ratio at 1 h ([3]; tumor/blood, Tumor/blood uptake ratio, 1 h blocked (co-injected with 100 µg [D-Phe6,Leu-NHEt13,des-Met14]Bombesin(6-14))): 5.32 ± 0.87
tissue to tissue ratio at 1 h ([3]; tumor/blood, Tumor/blood uptake ratio, 1 h post-injection): 15.9 ± 1.55
tissue to tissue ratio at 4 h [3, 4]: 234 ± 53.9
tissue to tissue ratio at 24 h [3, 4]: 1220 ± 229
tissue to tissue ratio at 72 h [3, 4]: 1330 ± 177
tissue to tissue ratio at 120 h [3, 4]: 1310 ± 412
tissue to tissue ratio at 1 h ([3]; tumor/kidney, Tumor/kidney uptake ratio, 1 h blocked (co-injected with 100 µg [D-Phe6,Leu-NHEt13,des-Met14]Bombesin(6-14))): 0.85 ± 0.1
tissue to tissue ratio at 1 h ([3]; tumor/kidney, Tumor/kidney uptake ratio, 1 h post-injection): 2.96 ± 0.43
tissue to tissue ratio at 4 h [3, 5]: 3.27 ± 0.89
tissue to tissue ratio at 24 h [3, 5]: 4.86 ± 0.64
tissue to tissue ratio at 72 h [3, 5]: 8.92 ± 1.62
tissue to tissue ratio at 120 h [3, 5]: 11.3 ± 1.27
tissue to tissue ratio at 1 h ([3]; tumor/muscle, Tumor/muscle uptake ratio, 1 h blocked (co-injected with 100 µg [D-Phe6,Leu-NHEt13,des-Met14]Bombesin(6-14))): 21.5 ± 3.27
tissue to tissue ratio at 1 h ([3]; tumor/muscle, Tumor/muscle uptake ratio, 1 h post-injection): 76.2 ± 10.1
tissue to tissue ratio at 4 h [3, 6]: 392 ± 101
tissue to tissue ratio at 24 h [3, 6]: 651 ± 95
tissue to tissue ratio at 72 h [3, 6]: 647 ± 311
tissue to tissue ratio at 120 h [3, 6]: 776 ± 314
tissue to tissue ratio at 1 h ([3]; tumor/pancreas, Tumor/pancreas uptake ratio, 1 h blocked (co-injected with 100 µg [D-Phe6,Leu-NHEt13,des-Met14]Bombesin(6-14))): 1.17 ± 0.31
tissue to tissue ratio at 1 h ([3]; tumor/pancreas, Tumor/pancreas uptake ratio, 1 h post-injection): 0.99 ± 0.11
tissue to tissue ratio at 4 h [3, 7]: 1.87 ± 0.37
tissue to tissue ratio at 24 h [3, 7]: 2.22 ± 0.25
tissue to tissue ratio at 72 h [3, 7]: 4.58 ± 0.68
tissue to tissue ratio at 120 h [3, 7]: 6.6 ± 1.14
tissue uptake at 1 h ([3]; PC-3 tumor, 100 ug, Uptake in PC-3 tumor, 1 h blocked (co-injected with 100 µg [D-Phe6,Leu-NHEt13,des-Met14]Bombesin(6-14))): 2.99 ± 0.42 %ID/g
tissue uptake at 1 h ([3]; PC-3 tumor, Uptake in PC-3 tumor, 1 h post-injection): 11 ± 1.03 %ID/g
tissue uptake at 4 h [3, 8]: 10.1 ± 1.4 %ID/g
tissue uptake at 24 h [3, 8]: 6.9 ± 1.34 %ID/g
tissue uptake at 72 h [3, 8]: 4.72 ± 1.42 %ID/g
tissue uptake at 120 h [3, 8]: 2.23 ± 0.33 %ID/g
tissue uptake at 1 h ([3]; adrenal glands, 100 ug, Uptake in adrenal glands, 1 h blocked (co-injected with 100 µg [D-Phe6,Leu-NHEt13,des-Met14]Bombesin(6-14))): 0.54 ± 0.24 %ID/g
tissue uptake at 24 h [3, 9]: 0.98 ± 0.18 %ID/g
tissue uptake at 120 h [3, 9]: 0.25 ± 0.05 %ID/g
tissue uptake at 1 h ([3]; blood, 100 ug, Uptake in blood, 1 h blocked (co-injected with 100 µg [D-Phe6,Leu-NHEt13,des-Met14]Bombesin(6-14))): 0.58 ± 0.16 %ID/g
tissue uptake at 4 h ([3]; blood, Uptake in blood): 0.04 ± 0.01 %ID/g
tissue uptake at 24 h ([3]; blood, Uptake in blood): 0.01 %ID/g
tissue uptake at 1 h ([3]; bone, 100 ug, Uptake in bone, 1 h blocked (co-injected with 100 µg [D-Phe6,Leu-NHEt13,des-Met14]Bombesin(6-14))): 0.08 ± 0.02 %ID/g
tissue uptake at 4 h ([3]; bone, Uptake in bone): 0.05 ± 0.03 %ID/g
tissue uptake at 24 h ([3]; bone, Uptake in bone): 0.02 ± 0.01 %ID/g
tissue uptake at 72 h ([3]; bone, Uptake in bone): 0.02 ± 0.01 %ID/g
tissue uptake at 120 h ([3]; bone, Uptake in bone): 0.01 %ID/g
tissue uptake at 1 h ([3]; brain, 100 ug, Uptake in brain, 1 h blocked (co-injected with 100 µg [D-Phe6,Leu-NHEt13,des-Met14]Bombesin(6-14))): 0.02 %ID/g
tissue uptake at 1 h ([3]; fat, 100 ug, Uptake in fat, 1 h blocked (co-injected with 100 µg [D-Phe6,Leu-NHEt13,des-Met14]Bombesin(6-14))): 0.07 ± 0.02 %ID/g
tissue uptake at 1 h ([3]; fat, Uptake in fat, 1 h post-injection): 0.07 ± 0.02 %ID/g
tissue uptake at 4 h ([3]; fat, Uptake in fat): 0.01 %ID/g
tissue uptake at 24 h ([3]; fat, Uptake in fat): 0.01 %ID/g
tissue uptake at 1 h ([3]; heart, 100 ug, Uptake in heart, 1 h blocked (co-injected with 100 µg [D-Phe6,Leu-NHEt13,des-Met14]Bombesin(6-14))): 0.2 ± 0.06 %ID/g
tissue uptake at 1 h ([3]; heart, Uptake in heart, 1 h post-injection): 0.22 ± 0.01 %ID/g
tissue uptake at 72 h ([3]; heart, Uptake in heart): 0.02 %ID/g
tissue uptake at 120 h ([3]; heart, Uptake in heart): 0.01 %ID/g
tissue uptake at 1 h ([3]; kidneys, 100 ug, Uptake in kidneys, 1 h blocked (co-injected with 100 µg [D-Phe6,Leu-NHEt13,des-Met14]Bombesin(6-14))): 3.56 ± 0.77 %ID/g
tissue uptake at 1 h ([3]; kidneys, Uptake in kidneys, 1 h post-injection): 3.77 ± 0.58 %ID/g
tissue uptake at 4 h ([3]; kidneys, Uptake in kidneys): 2.67 ± 0.49 %ID/g
tissue uptake at 24 h ([3]; kidneys, Uptake in kidneys): 1.46 ± 0.42 %ID/g
tissue uptake at 72 h ([3]; kidneys, Uptake in kidneys): < 1 %ID/g
tissue uptake at 120 h ([3]; kidneys, Uptake in kidneys): 0.2 ± 0.02 %ID/g
tissue uptake at 1 h ([3]; large intestine, Uptake in large intestine, 1 h post-injection): 1 ± 0.15 %ID/g
tissue uptake at 4 h [3, 10]: 1.15 ± 0.38 %ID/g
tissue uptake at 24 h [3, 10]: 0.44 ± 0.11 %ID/g
tissue uptake at 1 h ([3]; liver, 100 ug, Uptake in liver, 1 h blocked (co-injected with 100 µg [D-Phe6,Leu-NHEt13,des-Met14]Bombesin(6-14))): 0.26 ± 0.05 %ID/g
